Literature values as cited in publication PMC11054282, “Structural Investigations on 2-Amidobenzimidazole Derivatives as New Inhibitors of Protein Kinase CK1 Delta” (Pharmaceuticals, 2024).
Read-outs that look alike come from different tables or passages of the source.

What was measured:
CK1δ = details: cited from earlier work
CK1ε = details: cited from earlier work

## COc1ccc(/C=C/C(=O)Nc2cc(-c3c(-c4ccc(F)cc4)noc3C(C)C)ccn2)c(OC)c1 [II]
CK1δ; compound II, Figure 1, read-out: CK1δ IC50
  IC50: 33 nM
CK1ε; compound II, Figure 1
  IC50: 2520 nM

## COc1ccc(/C=C/C(=O)Nc2cc(-c3nc(SC)[nH]c3-c3ccc(F)cc3)ccn2)c(OC)c1 [III]
CK1δ; compound III, Figure 1, read-out: CK1δ IC50
  IC50: 4 nM
CK1ε; compound III, Figure 1
  IC50: 73 nM
